{"source": "paper PMC11671526", "about": "“β-caryophyllene sensitizes hepatocellular carcinoma cells to chemotherapeutics and inhibits cell malignancy through targeting MAPK signaling pathway” (Frontiers in Pharmacology, 2024)", "assay_type_in_all_cases": "cell-based, human", "key": {"[1]": {"tested_on": "HL-7702 normal liver cells", "test": "CCK8 cell viability assay", "settings": "for IC50: HL-7702, 48 h, individual treatment, read-out: IC50 (half maximal inhibitory concentration); for effect of combination with BCP (isobologram analysis): HL-7702, BCP 25-150 μM combined with DOX or DDP", "description": "(§1) Cell viability assay using the CCK8 reagent (Bimake, Shanghai, China) was conducted according to the manufacturer’s instructions. The cell proliferation data were used to calculate the cell viability. Briefly, HepG2, SMMC-7721, and HL-7702 cells with a density of 5 × 10^3 cells/well were seeded into each well of 96-well plates and incubated overnight. […] After 48 h, 10 µL of CCK8 reagent was added to each well, followed by 2 h incubation at 37°C and measurement of absorbance at 450 nm using a microplate reader (Molecular Devices, LLC.). […] The effects of the combinatorial inhibition were visualized by isobologram analyses ([Tallarida, 2001]). […] A line was drawn to link the two IC50 points. […] The dots above, on, or below the line indicate the “antagonistic,” “additive” and “synergistic” effects, respectively. The same method was used to obtain the CI value for the cotreatment of BCP and DDP."}, "HepG2 cells [2]": {"tested_on": "HepG2 cells", "test": "CCK8 cell viability assay", "settings": "for IC50: HepG2, 48 h, individual treatment, read-out: IC50 (half maximal inhibitory concentration); for effect of combination with BCP (isobologram analysis): HepG2, BCP 25-150 μM combined with DOX or DDP", "description": "as §1"}, "SMMC-7721 cells [3]": {"tested_on": "SMMC-7721 cells", "test": "CCK8 cell viability assay", "settings": "for IC50: SMMC-7721, 48 h, individual treatment, read-out: IC50 (half maximal inhibitory concentration); for effect of combination with BCP (isobologram analysis): SMMC-7721, BCP 25-150 μM combined with DOX or DDP", "description": "as §1"}, "HL-7702 cells": {"tested_on": "HL-7702 cells", "test": "Annexin V-FITC/PI cell apoptosis assay (flow cytometry)", "settings": "HL-7702, 48 h, BCP 150 µM, DOXL 0.2 µM, DOXH 1.5 µM, DDPL 5 µM, DDPH 30 µM", "description": "(§2) The cell apoptosis assay was performed as previously described ([Zhong et al., 2019]; [Farooq et al., 2023]). […] Ltd., Nanjing, China). The cells were analyzed using flow cytometer (BECKMAN COULTER, cytoFLEX, United States)."}, "HepG2 cells [4]": {"tested_on": "HepG2 cells", "test": "Annexin V-FITC/PI cell apoptosis assay (flow cytometry)", "settings": "HepG2, 48 h; BCP 150 µM, DOXL 0.2 µM, DOXH 1.5 µM, DDPL 5 µM, DDPH 30 µM", "description": "as §2"}, "SMMC-7721 cells [5]": {"tested_on": "SMMC-7721 cells", "test": "Annexin V-FITC/PI cell apoptosis assay (flow cytometry)", "settings": "SMMC-7721, 48 h; BCP 150 µM, DOXL 0.2 µM, DOXH 1.5 µM, DDPL 5 µM, DDPH 30 µM", "description": "as §2"}, "[6]": {"settings": "HepG2, cotreatment with 25 μM BCP"}, "[7]": {"settings": "HepG2, cotreatment with 50 μM BCP"}, "[8]": {"settings": "HepG2, cotreatment with 75 μM BCP"}, "[9]": {"settings": "HepG2, cotreatment with 100 μM BCP"}, "[10]": {"settings": "HepG2, cotreatment with 150 μM BCP"}, "[11]": {"settings": "SMMC-7721, cotreatment with 25 μM BCP"}, "[12]": {"settings": "SMMC-7721, cotreatment with 50 μM BCP"}, "[13]": {"settings": "SMMC-7721, cotreatment with 75 μM BCP"}, "[14]": {"settings": "SMMC-7721, cotreatment with 100 μM BCP"}, "[15]": {"settings": "SMMC-7721, cotreatment with 150 μM BCP"}}, "note": "Read-outs that look alike come from different tables or passages of the source.", "data": [{"smiles": "N.N.[Cl][Pt][Cl]", "note": "[DDP, cisplatin]", "values": [{"measurement": "IC50", "setting": "[1]", "value": "11.5 ± 0.82", "unit": "µM"}, {"measurement": "effect of combination with BCP (isobologram analysis)", "setting": "[1]", "value": "additive"}, {"measurement": "combination index (CI)", "setting": "[1]; HL-7702, cotreatment with 25 μM BCP", "value": 1.04}, {"measurement": "combination index (CI)", "setting": "[1]; HL-7702, cotreatment with 50 μM BCP", "value": 0.95}, {"measurement": "combination index (CI)", "setting": "[1]; HL-7702, cotreatment with 75 μM BCP", "value": 1.01}, {"measurement": "combination index (CI)", "setting": "[1]; HL-7702, cotreatment with 100 μM BCP", "value": 0.89}, {"measurement": "combination index (CI)", "setting": "[1]; HL-7702, cotreatment with 150 μM BCP", "value": 0.92}, {"measurement": "fold reduction of IC50 in cotreatment from individual treatment", "setting": "[1]; HL-7702, cotreatment with 150 μM BCP vs DOX or DDP alone", "value": "less than 1.5 fold"}, {"measurement": "IC50", "setting": "HepG2 cells [2]", "value": "27.4 ± 2.59", "unit": "µM"}, {"measurement": "effect of combination with BCP (isobologram analysis)", "setting": "HepG2 cells [2]", "value": "synergistic"}, {"measurement": "combination index (CI)", "setting": "HepG2 cells [2]; [6]", "value": 0.74}, {"measurement": "combination index (CI)", "setting": "HepG2 cells [2]; [7]", "value": 0.71}, {"measurement": "combination index (CI)", "setting": "HepG2 cells [2]; [8]", "value": 0.66}, {"measurement": "combination index (CI)", "setting": "HepG2 cells [2]; [9]", "value": 0.68}, {"measurement": "combination index (CI)", "setting": "HepG2 cells [2]; [10]", "value": 0.88}, {"measurement": "fold lower IC50 in cotreatment than in treatment alone", "setting": "HepG2 cells [2]; HepG2, cotreatment with 150 μM BCP vs DOX or DDP alone", "value": "over 9 fold"}, {"measurement": "IC50", "setting": "SMMC-7721 cells [3]", "value": "33.7 ± 1.43", "unit": "µM"}, {"measurement": "effect of combination with BCP (isobologram analysis)", "setting": "SMMC-7721 cells [3]", "value": "synergistic"}, {"measurement": "combination index (CI)", "setting": "SMMC-7721 cells [3]; [11]", "value": 0.59}, {"measurement": "combination index (CI)", "setting": "SMMC-7721 cells [3]; [12]", "value": 0.57}, {"measurement": "combination index (CI)", "setting": "SMMC-7721 cells [3]; [13]", "value": 0.52}, {"measurement": "combination index (CI)", "setting": "SMMC-7721 cells [3]; [14]", "value": 0.51}, {"measurement": "combination index (CI)", "setting": "SMMC-7721 cells [3]; [15]", "value": 0.58}, {"measurement": "fold lower IC50 in cotreatment than in treatment alone", "setting": "SMMC-7721 cells [3]; SMMC-7721, cotreatment with 150 μM BCP vs DOX or DDP alone", "value": "over 9 fold"}, {"measurement": "apoptotic rate", "setting": "HL-7702 cells; listed as DDPH", "value": "28.52% ± 1%"}, {"measurement": "apoptotic rate", "setting": "HL-7702 cells; listed as DDPL", "value": "17.86% ± 0.69%"}, {"measurement": "apoptotic rate", "setting": "HepG2 cells [4]", "value": "11.40% ± 0.52%"}, {"measurement": "apoptotic rate", "setting": "SMMC-7721 cells [5]", "value": "7.67% ± 0.46%"}]}, {"smiles": "COc1cccc2c1C(=O)c1c(O)c3c(c(O)c1C2=O)C[C@@](O)(C(=O)CO)C[C@@H]3O[C@H]1C[C@H](N)[C@H](O)[C@H](C)O1", "note": "[DOX, doxorubicin]", "values": [{"measurement": "effect of combination with BCP (isobologram analysis)", "setting": "[1]", "value": "additive"}, {"measurement": "IC50", "setting": "[1]; Homo sapiens, L02", "value": "0.82 ± 0.09", "unit": "µM"}, {"measurement": "effect of combination with BCP (isobologram analysis)", "setting": "HepG2 cells [2]", "value": "synergistic"}, {"measurement": "combination index (CI)", "setting": "HepG2 cells [2]; [6]", "value": 0.53}, {"measurement": "combination index (CI)", "setting": "HepG2 cells [2]; [7]", "value": 0.58}, {"measurement": "combination index (CI)", "setting": "HepG2 cells [2]; [8]", "value": 0.56}, {"measurement": "combination index (CI)", "setting": "HepG2 cells [2]; [9]", "value": 0.65}, {"measurement": "combination index (CI)", "setting": "HepG2 cells [2]; [10]", "value": 0.85}, {"measurement": "IC50", "setting": "HepG2 cells [2]; Homo sapiens", "value": "1.99 ± 0.2", "unit": "µM"}, {"measurement": "IC50", "setting": "SMMC-7721 cells [3]; Homo sapiens", "value": "1.76 ± 0.13", "unit": "µM"}, {"measurement": "effect of combination with BCP (isobologram analysis)", "setting": "SMMC-7721 cells [3]", "value": "synergistic"}, {"measurement": "combination index (CI)", "setting": "SMMC-7721 cells [3]; [11]", "value": 0.48}, {"measurement": "combination index (CI)", "setting": "SMMC-7721 cells [3]; [12]", "value": 0.53}, {"measurement": "combination index (CI)", "setting": "SMMC-7721 cells [3]; [13]", "value": 0.50}, {"measurement": "combination index (CI)", "setting": "SMMC-7721 cells [3]; [14]", "value": 0.55}, {"measurement": "combination index (CI)", "setting": "SMMC-7721 cells [3]; [15]", "value": 0.65}, {"measurement": "apoptotic rate", "setting": "HL-7702 cells; listed as DOXH", "value": "33.83% ± 1.27%"}, {"measurement": "apoptotic rate", "setting": "HL-7702 cells; listed as DOXL", "value": "13.04% ± 0.57%"}, {"measurement": "apoptotic rate", "setting": "HepG2 cells [4]", "value": "13.40% ± 0.65%"}, {"measurement": "apoptotic rate", "setting": "SMMC-7721 cells [5]", "value": "8.74% ± 1.32%"}]}]}
